Here are results for 7 substances from US20210076698A1, “METHODS OF MAINTAINING OR INCREASING GROWTH OR COGNITIVE DEVELOPMENT” (FONTERRA CO-OPERATIVE GROUP LIMITED, priority 2007, published 2021).

One data set deals with neuronal out growth. The following applies: cited from earlier work.
A further data set deals with cholera toxin (Vibrio cholerae serotype O1, UniProt P01556). The settings on record: cited from earlier work.
Another data set has as its system human placenta. As to the kind of experiment: Placental transfer trial, dual perfused human placental lobules (Example 3). The data set is classed as in vitro ADME. The source says: Dual perfused human lobules were taken from six placentae of uncomplicated term pregnancies (normal elective Caesarean patients). Maternal and fetal arterial and venous supplies were isolated, catheterised and the placenta maintained by perfusion of sterile krebs buffer (that also contains serum albumin to aid transport of lipophilic substances) at room temperature in a sterile air perfusion chamber at constant flow rate and pressure. The perfusion technique used was modified from Glance et al (1984) according to Collier et al (2004).
Equilibration was performed for 60 min to assess physical integrity of tissue and circuits (fetal arterial pressure <40 mmHg and leakage of perfusate from fetal to maternal circuit <2 ml/h) then the maternal and fetal reservoirs replaced with fresh media containing doses of test substances. Time zero and then hourly samples are collected from all circuits and stored frozen for analysis. Metabolic viability of the preparation is assessed with samples collected hourly from maternal and fetal arteries and analysed for oxygen and carbon dioxide saturation, electrolytes and glucose consumption (Bayer 865 Blood Gas Analyzer, Bayer Diagnostics and lactate production (Hitachi 917, Roche Diagnostics). 10 μg/mL of milk-derived ganglioside mixture (GM3+GD3—isolated from G600™ precursor described above) was added to the maternal reservoir. Perfusion was conducted for up to 3 hours using a closed loop system. Samples were taken from both reservoirs at that point (t=0) and at regular time-points, snap frozen in liquid nitrogen, and subsequently assayed for GM3, GD3, and lobule viability.
GM3 and GD3 contents of the perfusates were measured by LC-MS using a Hypersil APS2 column, normal phase acetonitrile gradient and detected in the LTQ orbitrap in negative ion full scan, as described below. Perfusate samples were “protein crashed” by addition into methanol, allowed to stand for 60 min at 4° C. before centrifugation (20,000×g). An aliquot (10-50 μL) was loaded onto an online C18 trap, washed (50% MeOH), before eluted onto a Hypersil APS2 column (Thermo Finnigan, MA, USA). Gangliosides were separated on a normal phase gradient, and detected in the LTQ Orbitrap Mass spectrometer (ThermoFinnigan, Ma, USA) in negative ion mode. The LC-MS system was calibrated using GD3 and GM3 standards purchased from Matreya (Pa, USA). Lobule viability was assessed by Glucose uptake and lactate production, measured with an Autoanalyzer.

For data set [1] the following is noted: rats (Hungund et al, 1993); cited from earlier work.
Where [2] appears, read: 10 μg/mL GM3+GD3 mixture in maternal reservoir, perfusion up to 3 hours.

Chain of cholera toxin (P01556 22-124 limits assumed): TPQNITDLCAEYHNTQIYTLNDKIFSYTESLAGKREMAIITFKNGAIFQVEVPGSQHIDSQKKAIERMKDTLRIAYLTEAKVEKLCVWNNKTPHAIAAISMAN

In the case of 9-O-acetyl GD3 [reference compound], the “effect on neuronal out growth” value with neuronal out growth is listed as “promotes”.

With GD1a, at cholera toxin, the “binding of cholera toxin” value is listed as “negligible binding”.

Turning to GD3, in the data set with human placenta (LC-MS), the “concentrations in foetal perfusate” value is recorded as “below assay sensitivity”. Further, the “reduction in maternal concentrations” value in the data set on human placenta (average, all cases) is 25-30%. The “effect on neuronal out growth” value in the data set on neuronal out growth is reported as “does not”.

Regarding GM2, the “binding of cholera toxin” value on cholera toxin was “negligible binding”.

Turning to GM3, in the data set on human placenta (setting [2]), the “increase of foetal perfusate concentration over time” value is given as “approximately 6 fold” and the “transfer across the human placenta” value is reported as “evidence of transfer”. Moreover, in the data set with human placenta (on average, from the starting maternal concentration), the “reduction of maternal perfusate concentration” value was “half”. The “maternal perfusate concentration before reduction” value in the data set with human placenta (starting level in maternal perfusate) is reported as “approximately 300 ng/ml”.

Regarding Ganglioside GM1a, the “crossing of the placenta” value in data set [1] is listed as “cross the placenta”.

For ganglioside GM1, the “binding of cholera toxin” value at cholera toxin was “specific”.
